Results: US5492909A, “Triazolopyridazine derivatives, their production and use” (Takeda Chemical Industries, Ltd., priority 1993, dated 1996)

Tested on: PAF-induced bronchoconstriction
Test: Effect on bronchoconstriction induced by platelet activating factor (PAF) in guinea pigs (Konzett-Roessler method)
Format: in vivo, guinea pig (male Hartley)
Conditions: oral, 1 hour before PAF (1 μg/kg i.v.)
Experimental: [Effect on bronchoconstriction induced by platelet activating factor (PAF) in guinea pigs]
Male Hartley guinea pigs (body weights about 500 g) were used. The bronchoconstriction reaction in the guinea pig which has intravenously been administered with PAF (1 μg/kg) was measured by the Konzett-Roessler method.
The trachea of the guinea pig with its back fixed was incised under anesthesia condition with urethane (intravenous injection, 1.5 g/kg) and connected with an artificial respirator via a cannula. The branch of the tracheal cannula was connected with a transducer (7020 type, manufactured by Ugobasile). Air was sent to the trachea at the rate of 3 to 7 ml per stroke, 70 strokes/min. and at load pressure of 10 cm H2 O to lung, and overflowed air volume was recorded with Rectegraph (Recte-Hori-8s, Sanei Sokuki Co., Ltd., Japan) via transducer. After the guinea pig was treated with gallamine (intravenous injection, 1 mg/kg), 1 μg/kg of PAF dissolved in a physiological saline solution was administered to the guinea pig via jugular venous cannula and the bronchoconstriction reaction induced thereby was recorded for 15 minutes. The drug (3 mg/kg and 10 mg/kg respectively) suspended in a 5% gum arabic solution was administered orally 1 hour before the injection of PAF.

Row | Structure (SMILES) | Inhibition (%) of PAF-induced bronchoconstriction (3 mg/kg) [%] | Inhibition (%) of PAF-induced bronchoconstriction (10 mg/kg) [%]
1 | CCC(CC)(COc1cc(C)c2nncn2n1)CS(N)(=O)=O [Example 1, 6-(2,2-diethyl-3-sulfamoyl-1-propoxy)-8-methyl-[1,2,4]triazolo[4,3-b]pyridazine] | 85.8 | 100
2 | CCC(CC)(COc1ccc2nncn2n1)CS(N)(=O)=O [Example 3, 6-(2,2-diethyl-3-sulfamoyl-1-propoxy)[1,2, 4]triazolo[4,3-b]pyridazine] | 51.1 | 61.2
3 | CC(C)(COc1ccc2nncn2n1)CS(N)(=O)=O [Example 5, 6-(2,2-dimethyl-3-sulfamoyl-1-propoxy)[1,2,4]triazolo[4,3-b]pyridazine] | 22.4 | 41.2
